Holding throughout (experiment): AK assay 384-well format, Prestwick library screening
For one assay, the system named is K. pneumoniae. It counts as cell-based, Klebsiella pneumoniae. The conditions noted are these: 50 μM final drug concentration; for fold induction at 50 µM: Klebsiella pneumoniae, 3 h.
For assay [1], the system named is S. aureus strain USA300-0114. It counts as cell-based, Staphylococcus aureus. To be noted: 50 μM final drug concentration; for fold induction at 50 µM: Staphylococcus aureus, USA300, 3 h.
A further assay deals with E. coli. It counts as cell-based, Escherichia coli. The conditions noted are these: 50 μM final drug concentration; for fold induction at 50 µM: Escherichia coli, 3 h.
Another assay concerns P. aeruginosa. The assay is classed as cell-based, Pseudomonas aeruginosa. To be noted: 50 μM final drug concentration; for fold induction at 50 µM: Pseudomonas aeruginosa, 3 h.
The subject of a further assay is E. faecium. The assay is classed as cell-based, Enterococcus faecium. To be noted: 50 μM final drug concentration; for fold induction at 50 µM: Enterococcus faecium, 3 h.
In assay [2] the test system is A. baumannii strain 98-37-09. It counts as cell-based, Acinetobacter baumannii. To be noted: 50 μM final drug concentration; for fold induction at 50 µM: Acinetobacter baumannii, 983709, 3 h.
In a further assay the test system is E. cloacae. It counts as cell-based, Enterobacter cloacae. The conditions noted are these: 50 μM final drug concentration; for fold induction at 50 µM: Enterobacter cloacae, 3 h.
Where [3] appears, read: 384-well format, cutoff for positive-scoring molecules 3-fold increase.
Where [4] appears, read: cutoff for positive-scoring molecules 3-fold increase, read-out: AK-based Prestwick Library Screening Results, K. pneumoniae (fold increase in extracellular AK activity).
The mark [5] stands for this setting: cutoff for positive-scoring molecules 3-fold increase, read-out: AK-based Prestwick Library Screening Results, S. aureus (fold increase in extracellular AK activity).
[6] abbreviates: cutoff for positive-scoring molecules 3-fold increase, read-out: AK-based Prestwick Library Screening Results, E. coli (fold increase in extracellular AK activity).
[7] abbreviates: cutoff for positive-scoring molecules 3-fold increase, read-out: AK-based Prestwick Library Screening Results, P. aeruginosa (fold increase in extracellular AK activity).
[8] abbreviates: cutoff for positive-scoring molecules 3-fold increase, read-out: AK-based Prestwick Library Screening Results, E. faecium (fold increase in extracellular AK activity).
Setting [9] is: cutoff for positive-scoring molecules 3-fold increase, read-out: AK-based Prestwick Library Screening Results, A. baumannii (fold increase in extracellular AK activity).
Where [10] appears, read: cutoff for positive-scoring molecules 3-fold increase, read-out: AK-based Prestwick Library Screening Results, E. cloacae (fold increase in extracellular AK activity).
Setting [11] is: 384-well format, cutoff for positive-scoring molecules 3-fold increase, read-out: AK-based Prestwick Library Screening Results, K. pneumoniae (increase in extracellular AK activity).
The mark [12] stands for this setting: 384-well format, cutoff for positive-scoring molecules 3-fold increase, read-out: AK-based Prestwick Library Screening Results, S. aureus (increase in extracellular AK activity).
The mark [13] stands for this setting: 384-well format, cutoff for positive-scoring molecules 3-fold increase, read-out: AK-based Prestwick Library Screening Results, E. coli (increase in extracellular AK activity).
The mark [14] stands for this setting: 384-well format, cutoff for positive-scoring molecules 3-fold increase, read-out: AK-based Prestwick Library Screening Results, P. aeruginosa (increase in extracellular AK activity).
[15] abbreviates: 384-well format, cutoff for positive-scoring molecules 3-fold increase, read-out: AK-based Prestwick Library Screening Results, E. faecium (increase in extracellular AK activity).
Setting [16] is: 384-well format, cutoff for positive-scoring molecules 3-fold increase, read-out: AK-based Prestwick Library Screening Results, A. baumannii (increase in extracellular AK activity).
Setting [17] is: 384-well format, cutoff for positive-scoring molecules 3-fold increase, read-out: AK-based Prestwick Library Screening Results, E. cloacae (increase in extracellular AK activity).

Where a name gives a salt, the structure may show the parent alone. Read-outs that look alike come from different tables or passages of the source.

As to `c1ccc(CNc2ncnc3[nH]cnc23)cc1` [Aminopurine, 6-benzyl], the “AK-based Prestwick Library Screening Results, K. pneumoniae (increase in extracellular AK activity)” value with K. pneumoniae (setting [3]) turned out to be 0.8. In addition, in assay [1] (setting [3]), the “AK-based Prestwick Library Screening Results, S. aureus (increase in extracellular AK activity)” value is reported as 0.7. In the assay with E. coli (setting [3]), the “AK-based Prestwick Library Screening Results, E. coli (increase in extracellular AK activity)” value is 0.9. Further, the “AK-based Prestwick Library Screening Results, P. aeruginosa (increase in extracellular AK activity)” value in the assay on P. aeruginosa (setting [3]) was found to be 0.9. For the same compound, the “AK-based Prestwick Library Screening Results, E. faecium (increase in extracellular AK activity)” value in the assay with E. faecium (setting [3]) was 0.9. In addition, in assay [2] (setting [3]), the “AK-based Prestwick Library Screening Results, A. baumannii (increase in extracellular AK activity)” value is given as 0.8. The “AK-based Prestwick Library Screening Results, E. cloacae (increase in extracellular AK activity)” value with E. cloacae (setting [3]) was 1.1.
On to `COc1ccc(-c2cc(=O)c3c(O)cc(O)cc3o2)cc1` [Acacetin], for which the fold induction at 50 µM in the assay on K. pneumoniae (setting [4]) was 0.6; in assay [1] (setting [5]) it was 0.7; with E. coli (setting [6]), 0.7; in the assay on P. aeruginosa (setting [7]), 0.6; with E. faecium (setting [8]) it was 0.5; in assay [2] (setting [9]) it was 0.3. Besides, the fold induction at 50 µM in the assay on E. cloacae (setting [10]) was found to be 1.6.
As to Pridinol methanesulfonate salt, the “AK-based Prestwick Library Screening Results, K. pneumoniae (fold increase in extracellular AK activity)” value with K. pneumoniae ([…]) is given as 0.9. Moreover, the “AK-based Prestwick Library Screening Results, S. aureus (fold increase in extracellular AK activity)” value in assay [1] ([…]) is given as 1.2. For the same compound, the “AK-based Prestwick Library Screening Results, E. coli (fold increase in extracellular AK activity)” value in the assay with E. coli ([…]) was determined as 1.1. In the assay on P. aeruginosa ([…]), the “AK-based Prestwick Library Screening Results, P. aeruginosa (fold increase in extracellular AK activity)” value is listed as 1.1. In addition, the “AK-based Prestwick Library Screening Results, E. faecium (fold increase in extracellular AK activity)” value in the assay with E. faecium ([…]) is recorded as 1.1. Further, the “AK-based Prestwick Library Screening Results, A. baumannii (fold increase in extracellular AK activity)” value in assay [2] ([…]) was found to be 1.1. The “AK-based Prestwick Library Screening Results, E. cloacae (fold increase in extracellular AK activity)” value in the assay on E. cloacae ([…]) was 1.6.
For the compound `CN1CCN(C(c2ccccc2)c2ccc(Cl)cc2)CC1` (stereo not shown) [Chlorcyclizine hydrochloride], the fold induction at 50 µM in the assay with K. pneumoniae (setting [4]) worked out at 1.1; in assay [1] (setting [5]), 1.2; with E. coli (setting [6]) it was 1.3; in the assay with P. aeruginosa (setting [7]) it was 1.1; in the assay on E. faecium (setting [8]), 1; in assay [2] (setting [9]) it was 1.5. For the same compound, the fold induction at 50 µM in the assay with E. cloacae (setting [10]) was 1.6.
Take `C[C@H]1[C@H](NC(=O)/C(=N\OC(C)(C)C(=O)O)c2csc(N)n2)C(=O)N1S(=O)(=O)O` [Aztreonam]: the fold induction at 50 µM in the assay with K. pneumoniae (setting [11]) amounted to 2.6; in assay [1] (setting [12]) it was 0.6; in the assay with E. coli (setting [13]), 15.9; in the assay on P. aeruginosa (setting [14]) it was 9.1; in the assay with E. faecium (setting [15]) it was 1; in assay [2] (setting [16]) it was 5.4. Also, the fold induction at 50 µM in the assay on E. cloacae (setting [17]) stood at 18.4.
As for `Cc1cccc(C)c1OCC(C)N` (stereo not shown) [Mexiletine hydrochloride], the fold induction at 50 µM with K. pneumoniae (setting [11]) was determined as 0.6; in assay [1] (setting [12]) it was 0.7; in the assay on E. coli (setting [13]), 0.6; in the assay on P. aeruginosa (setting [14]), 0.7; in the assay on E. faecium (setting [15]), 0.9; in assay [2] (setting [16]), 0.5. For the same compound, the fold induction at 50 µM with E. cloacae (setting [17]) is 0.7.
For `O=C1c2c(O)ccc(O)c2C(=O)c2c(NCCNCCO)ccc(NCCNCCO)c21` [Mitoxantrone dihydrochloride], the fold induction at 50 µM in the assay on K. pneumoniae (planktonic, cutoff for positive 3-fold increase, read-out: AK-based Prestwick Library Screening Results, K. pneumoniae (fold increase in extracellular AK activity)) amounted to 1; in assay [1] (planktonic, cutoff for positive 3-fold increase, read-out: AK-based Prestwick Library Screening Results, S. aureus (fold increase in extracellular AK activity)) it was 0.7; in the assay with E. coli (planktonic, […], read-out: AK-based Prestwick Library Screening Results, E. coli (fold increase in extracellular AK activity)) it was 1.5; with P. aeruginosa (planktonic, cutoff for positive 3-fold increase, read-out: AK-based Prestwick Library Screening Results, P. aeruginosa (fold increase in extracellular AK activity)) it was 0.9; in the assay with E. faecium (planktonic, cutoff for positive 3-fold increase, read-out: AK-based Prestwick Library Screening Results, E. faecium (fold increase in extracellular AK activity)), 0.8; in assay [2] (planktonic, cutoff for positive 3-fold increase, read-out: AK-based Prestwick Library Screening Results, A. baumannii (fold increase in extracellular AK activity)), 1.5. Besides, in the assay with E. cloacae (planktonic, cutoff for positive 3-fold increase, read-out: AK-based Prestwick Library Screening Results, E. cloacae (fold increase in extracellular AK activity)), the fold induction at 50 µM is 1.2.
Regarding `O=C(O)Cc1cc(I)c(Oc2ccc(O)c(I)c2)c(I)c1`, the “AK-based Prestwick Library Screening Results: K. pneumoniae (increase in extracellular AK activity)” value in the assay with K. pneumoniae (planktonic K. pneumoniae, 384-well, cutoff for positive-scoring molecules 3-fold increase) was found to be 1.0. The “AK-based Prestwick Library Screening Results: S. aureus (increase in extracellular AK activity)” value in assay [1] (planktonic S. aureus, 384-well, cutoff for positive-scoring molecules 3-fold increase) is listed as 0.4. In addition, the “AK-based Prestwick Library Screening Results: E. coli (increase in extracellular AK activity)” value with E. coli (planktonic E. coli, 384-well, cutoff for positive-scoring molecules 3-fold increase) was 1.1. Besides, in the assay with P. aeruginosa (planktonic P. aeruginosa, 384-well, cutoff for positive-scoring molecules 3-fold increase), the “AK-based Prestwick Library Screening Results: P. aeruginosa (increase in extracellular AK activity)” value is on record as 1.2. Moreover, the “AK-based Prestwick Library Screening Results: E. faecium (increase in extracellular AK activity)” value in the assay on E. faecium (planktonic E. faecium, 384-well, cutoff for positive-scoring molecules 3-fold increase) amounted to 1.3. For the same compound, in assay [2] (planktonic A. baumannii, 384-well, cutoff for positive-scoring molecules 3-fold increase), the “AK-based Prestwick Library Screening Results: A. baumannii (increase in extracellular AK activity)” value stood at 1.1. In addition, the “AK-based Prestwick Library Screening Results: E. cloacae (increase in extracellular AK activity)” value in the assay with E. cloacae (planktonic E. cloacae, 384-well, cutoff for positive-scoring molecules 3-fold increase) is on record as 1.5.
Regarding `Cc1cc(NC(=O)C2=C(O)c3ccccc3S(=O)(=O)N2C)no1` [Isoxicam], the fold induction at 50 µM is 1 in the assay on K. pneumoniae (setting [11]); 1 in assay [1] (setting [12]); 1.2 in the assay on E. coli (setting [13]); 1 with P. aeruginosa (setting [14]); 1 in the assay on E. faecium (setting [15]); 1 in assay [2] (setting [16]). Also, in the assay on E. cloacae (setting [17]), the fold induction at 50 µM came out at 1.4.
With `CN(C)CCCSC(=N)N` [Dimaprit dihydrochloride], the fold induction at 50 µM in the assay with K. pneumoniae (planktonic K. pneumoniae, positive cutoff 3-fold increase, read-out: AK-based Prestwick library screening result, K. pneumoniae (fold increase in extracellular AK activity)) is 0.7; in assay [1] (planktonic S. aureus, positive cutoff 3-fold increase, read-out: AK-based Prestwick library screening result, S. aureus (fold increase in extracellular AK activity)) it was 0.7; in the assay with E. coli (planktonic E. coli, positive cutoff 3-fold increase, read-out: AK-based Prestwick library screening result, E. coli (fold increase in extracellular AK activity)), 0.8; in the assay with P. aeruginosa (planktonic P. aeruginosa, positive cutoff 3-fold increase, read-out: AK-based Prestwick library screening result, P. aeruginosa (fold increase in extracellular AK activity)), 0.8; in the assay with E. faecium (planktonic E. faecium, positive cutoff 3-fold increase, read-out: AK-based Prestwick library screening result, E. faecium (fold increase in extracellular AK activity)), 0.9; in assay [2] (planktonic A. baumannii, positive cutoff 3-fold increase, read-out: AK-based Prestwick library screening result, A. baumannii (fold increase in extracellular AK activity)), 0.8. The fold induction at 50 µM with E. cloacae (planktonic E. cloacae, positive cutoff 3-fold increase, read-out: AK-based Prestwick library screening result, E. cloacae (fold increase in extracellular AK activity)) turned out to be 1.
